Test results as given in patent US20220170028A1, “NOVEL INTERLEUKIN-2 VARIANTS AND BIFUNCTIONAL FUSION MOLECULES THEREOF” (Cugene Inc, priority 2019, published 2022).
Where two headings read alike, the source gives them in different places.

Tests used:
[1] = tested on: STAT5 phosphorylation in CD4+ Treg cells; test: STAT5 phosphorylation in CD4+ Treg cells, human PBMC assay by FACS; format: cell-based
Procedure, shortened: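 Donor PBMCs were starved in serum-free buffer at 4° C for 1 h, then 2×10^5 cells were exposed to serial dilutions of IL-2 variants for 30 min at 37° C. After fixation and permeabilization they were stained for CD4, CD25, FOXP3 and pSTAT5. Read-out is percent pSTAT5+ cells among CD4+/Foxp3+/CD25^high (Treg) or CD4+/Foxp3−/CD25^low (Tconv) cells by flow cytometry.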

[2] = tested on: CD4+ Treg vs CD4+ Tconv cells; test: STAT5 phosphorylation, selectivity / activity profile Treg versus CD4+ Tconv cells, human PBMC; format: cell-based
Procedure, shortened: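 Fresh human PBMC from a healthy donor, serum-starved 1 h at 4 °C, then exposed to serial dilutions of IL-2 variants for 30 min at 37 °C. After fixation/permeabilization, cells stained for CD4, CD25, FOXP3 and pSTAT5 and analysed by flow cytometry. Treg (CD4+/Foxp3+/CD25high) and Tconv (CD4+/Foxp3−/CD25low) gated; read-out is percent pSTAT5-positive cells.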

[3] = tested on: CD4+/Foxp3+/CD25+ Treg, CD4+/Foxp3-/CD25+ Teff and CD4+/Foxp3-/CD25- naive T cells; test: STAT5 phosphorylation in three CD4+ T cell subsets (Treg, CD4 effector, CD4 naive), human PBMC; format: cell-based
From the text: In addition to being assessed for their ability to differentially stimulate Stat5 phosphorylation in CD4 positive Treg (CD4+/Foxp3+/CD25^high) versus Tconv (CD4+/Foxp3−/CD25^low) cells, two variants, P-0511 and P-0512, were further assayed for their ability to stimulate other effector T and NK cells, including CD4 positive Teff (CD4+/Foxp3-/CD25+), CD8 cytotoxic T effector and NK cells in comparison to wild-type IL-2 (P-0250) and three IL-2 benchmark molecules containing V91K, N88R, N88D respectively.
After human PBMC Cells were treated with serial dilutions of test compounds, fixed and permeabilized, washed, and stained with a mixture of anti-CD25-PE, anti-FOXP3-APC, anti-pSTAT5-FITC, and anti-CD4-PerCP-Cy5.5 antibodies, the flow cytometry analysis was gated into CD4+/Foxp3+/CD25+, CD4+/Foxp3−/CD25+, CD4+/Foxp3−/CD25− groups for the Treg, CD4 effector, and CD4 naive T cell subsets, respectively. Data are expressed as a percent of pStat5 positive cells in gated population and illustrated in FIG. 9.

CD8+ T cells = test: CD8+ T cell proliferation, CFSE dilution, human PBMC; format: cell-based; settings: 5 or 7 days incubation
Description: (§1) Further, P-0511 and P-0512 were tested for their ability to stimulate NK and CD8+ T cells proliferation in comparison with the wild type and benchmark molecules. Intracellular fluorescent label carboxyfluorescein diacetate succinimidyl ester (CFSE) method was utilized. Briefly, human PBMC (1×10^5 cells/well) were labeled with CFSE, plated onto 96-well plates, and incubated with increasing concentrations of different IL-2 compounds. Cells were then harvested after 5 or 7 days of incubation and stained with either anti-CD56-APC antibody for NK cells or anti-CD8-APC antibody for CD8+ T cells; and analyzed by flow cytometry. Data are expressed as a percent of divided cells and illustrated in FIG. 10A for CD8+ T cell proliferation and FIG. 10B for NK cell proliferation.

NK cells = test: NK cell proliferation, CFSE dilution, human PBMC; format: cell-based; settings: 5 or 7 days incubation
Description: as §1

Treg cells [4] = test: Dose-response pharmacodynamics of Treg cells in mice after a single injection (Example 10); format: in vivo, mouse
Description: (§2) Following a single subcutaneous administration of vehicle (PBS) or P-0511 (1, 0.3, 0.1, or 0.03 mg/kg) to female Balb/C mice (n=5/group), peripheral blood was collected on day −2 as baseline, and post dose on days 3, 5, and 7. On day 7, mice were sacrificed, and spleens were harvested. Blood lymphocyte phenotyping, proliferation and expansion were measured by flow cytometry at each timepoint using fresh whole blood.

[5] = tested on: CD4+ Tconv cells, CD8 Teff and NK cells; test: Dose-response pharmacodynamics, CD4+ Tconv, CD8 and NK cells in mice (Example 10); format: in vivo, mouse; settings: single s.c. dose, Balb/C mice
Description: as §2

Treg cells [6] = test: Treg pharmacodynamics in mice after repeated administration Q3D (Example 11); format: in vivo, mouse; settings: 0.3 mg/kg s.c.
Description: Female Balb/C mice (7-week old) were acclimated in house for 5-7 days before the study. Vehicle (PBS), 0.3 mg/kg of P-0511, P-0512, P-0531, or Benchmark-1 compound were subcutaneously administered to mice (n=5/group) on days 0, 3, and 6. On days 3 and 9, three days after the first injection and multiple (3) injections, respectively, peripheral blood was collected. Based on earlier in vivo experiments, Treg cell activation, proliferation, and expansion were expected to peak on day 3, and thus three days post injection was selected for data collection and analysis. Changes in blood lymphocyte activation, proliferation, and expansion were measured by flow cytometry. P-0531 is the S125I equivalent of the wild type IL-2 fusion protein. The Benchmark-1 contains V91K mutation.

“P-0511: IL-2 L19H/S125I/Q126E Fc fusion, SEQ ID NO: 213” was tested, and the “potency in ex vivo cell assay relative to P-0560” value [1] was “over 100 fold”, the “activity profile / selectivity window Treg over CD4+ Tconv (in words)” value [2] was “further widened the Treg selectivity window” and the “Treg Selectivity” value ([2]; Isoleucine-125 constructs) was “Yes”. For the same substance, the “pSTAT5 activity profile in Treg, Teff and naive CD4 T cell subsets (in words)” value [3] was “preferential activation of Treg over Teff”, the “pSTAT5 activity profile in Treg, Teff and naive CD4 T cell subsets (in words)” value ([3]; listed as P-511) was “superior to both Benchmark-2 and -3” and the “potency in stimulating CD8+ T cell proliferation (in words)” value (CD8+ T cells) was “on par with Benchmark-3”. The “potency in stimulating NK cell proliferation (in words)” value (NK cells) was “on par with Benchmark-3”, the “proliferation of Treg cells (percentage of Ki67 positive cells)” value (Treg cells [4]; 0.03 mg/kg single s.c., Balb/C mice) was “minimal effect” and the “Treg/Tconv ratio at peak, based on cell count” value (from here on “Treg/Tconv ratio at peak, based”) (Treg cells [4]; 0.1 mg/kg) was 0.06. For the same substance, the “Treg as percentage of total lymphocytes at the peak” value (“Treg as percentage” below) (Treg cells [4]; 0.1 mg/kg single dose) was 1.4%, the “Treg/Tconv ratio at peak, based” value (Treg cells [4]; 0.3 mg/kg) was 0.18 and the “Treg as percentage” value (Treg cells [4]; 0.3 mg/kg single dose) was 3.1%. For the same substance, the “Treg/Tconv ratio at peak, based” value (Treg cells [4]; 1 mg/kg) was 0.27, the “Treg as percentage” value (Treg cells [4]; 1 mg/kg single dose) was 4.5% and the “proliferation of Treg cells (percentage of Ki67 positive cells)” value (Treg cells [4]; 1, 0.3, or 0.1 mg/kg single s.c., Balb/C mice) was “dose-dependent increases”. The “expression of Treg functional markers CD25 and FoxP3 (MFI)” value (Treg cells [4]; single s.c. dose, Balb/C mice) was “increased dose-dependently”, the “percentages of CD4+ Tconv, CD8 Teff and NK cells over the total lymphocytes” value [5] was “no statistically significant changes” and the “% Treg over total CD4 T cells or over total lymphocytes” value (Treg cells [6]; after three consecutive Q3D treatments) was “sustained at significantly high levels”. The “Treg cell counts, fold changes relative to PBS and Treg/Tconv ratio” value (Treg cells [6]; repeated dosing Q3D) was “superior capabilities to sustain Treg pool and maintain Treg selectivity”.
